Experiment [1] in a line: DPPH test (radical scavenger effect). Format: biochemical. Conditions: for radical scavenging activity (DPPH test), Mean: Example 8 series, in %; for anti-free-radicals effect (% vs negative control): DPPH test.
Experiment [2] concerns the target T1, HLE (Human Leucocyte Elastase) (Homo sapiens, UniProt P08246).
T1 sequence (P08246 30-267): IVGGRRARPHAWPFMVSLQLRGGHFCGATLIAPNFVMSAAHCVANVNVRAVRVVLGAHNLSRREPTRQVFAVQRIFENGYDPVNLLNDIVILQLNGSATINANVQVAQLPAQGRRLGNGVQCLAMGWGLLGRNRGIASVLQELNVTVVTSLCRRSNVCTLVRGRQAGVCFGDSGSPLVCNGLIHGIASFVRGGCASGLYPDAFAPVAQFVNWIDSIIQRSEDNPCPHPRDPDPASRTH
The experiment in a line: HLE test (anti-elastase activity, cleavage of coloured peptide substrate). In kind it is biochemical. How it is done:
The anti-elastase activity was evaluated using HLE (Human Leucocyte Elastase). […] The principle of this test resides in measuring the degree of cleavage of a coloured peptide substrate by HLE.
The tested products were as follows: • the extract of the invention was prepared in accordance with Example 1a) tested at final concentrations of 0.5%, 1%, 2% and 3% (w/w); • a 0.01% (w/w) solution of ursolic acid was used as the positive inhibition control for inhibition; • no solution was used as the negative control (the reaction buffer for the enzyme replaces the tested product).
The percentage inhibition was calculated for each test product with respect to the negative control (=100% activity i.e. 0% inhibition).
(§1) Tests used were performed in the same conditions than above described with Geophila cordifolia. Extract of Geophila repens was obtained according to example 7a) and tested at different concentrations.

For another experiment, the system named is type I collagen. Description: Fluorescent immunostaining of type I collagen on monolayer cultured fibroblasts. Format: cell-based, human. Conditions: 50 μg/ml. How it is done: Immunofluorescence makes it possible to observe different markers expressed by cells via the use of antibody recognizing these markers. In first step, cells were fixed in cold methanol for 10 minutes. After washing with PBS, antigenic aspecific sites were then blocked for 1 hour with PBS-BSA 1% solution (Bovine serum albumin). Primary antibody diluted at 1% in PBS/BSA 1% was incubated with cells for 1 hour. On the negative control is added IgG control isotope (instead of primary antibody). The excess of anti-body which has not been attached is removed by 2 washings with PBS. Cells were incubated out of light with a solution of secondary antibodies able to recognize primary antibody. This secondary antibody being linked with fluorochrome (Alexa Fluor 488), it makes it possible to see protein with florescent microscopy. Cells were then gently washed 3 times with PBS, and slides covered with mounting medium containing DAPI (Vector®, Vectashield), a nuclear colouring agent. Slides were stored out of light to maintain fluorescence of fluorochrome and analysed with confocal microscopy. Antibodies used in this test were: • primary antibody: collagen 1: rabbit anti-human type I collagen, polyclonal, diluted 1/200 (Novotech 20111) • primary antibody: Isotype IgG1: rabbit IgG1 isotype, ready to use (Zymed Laboratories 08-6199) • secondary antibody: goat anti-rabbit IgG coupled with Alexa fluor 488, polyclonal, diluted 1/1000 (in Vitrogen A11008) Cells used for immunostaining were obtained from fibroblasts from donor […]. Geophila cordifolia obtained according to example 1c) was tested at 1% (diluted in water). Fluorescent Immunostaining of type I collagen on monolayer cultured fibroblasts treated with vegetal extract obtained from example 1c) (magnification 400×, scale bar=25 μm).

The nature of experiment [3]: Lipid peroxidation test (TBARS assay, UV-induced peroxidation). In kind it is biochemical. To be noted: 1% (w/w). On the procedure: The radical scavenger effect was evaluated: • using the standard test with DPPH (1,1-diphenyl-2-picrylhydrazyl) the principle of which is the measurement of the bleaching induced in the presence of anti oxidants; • by the lipid peroxidation method. The TBArs technique means that malondialdehyde (MDA), one of the terminal products formed during the decomposition of polyunsaturated fatty acids mediated by free radicals, can be assayed. It is assayed by condensation in an acidic medium with hot thiobarbituric acid (TBA), thereby forming a pink chromogen which absorbs strongly between 530 and 535 nm. […] The intensity of the colour is directly proportional to the quantity of MDA. The inhibition of UV-induced peroxidation during incorporation of an active agent allows its anti-oxidizing potential to be calculated.
A 5% liposomal suspension was prepared in deionized water. […] A “blank” was also deposited on a non-irradiated control plate for the spectrophotometer reading (water), the non-irradiated positive control measurements and the non-irradiated test measurements (active agent tested at different concentrations). […]
The percentage inhibition was calculated for each test product with respect to the negative control (=100% of generated free radicals meaning 0% anti-free-radicals effect)

Another experiment relates to LOXL. The experiment in a line: Expression of LOXL gene by quantitative RT-PCR in normal human fibroblasts. Format: cell-based. To be noted: IL-1b treated fibroblasts, untreated non-irradiated = 1. On the procedure:
The expression of genes for elastin and LOXL was measured using quantitative RT-PCR under standard culture conditions or after irradiation with increasing doses of UVB or UVA. Their level of expression has been related to the number of cells using the housekeeping gene actin. Expression of the LOXL gene was also followed by quantitative RT-PCR under non-irradiated conditions after application for 24 hours of a Geophila cordifolia extract obtained according to process 1a) at 1%.
(§2) Normal human fibroblasts (NH F) cultivated in a FGM medium (fibroblast growth medium, Promocell) were exposed to a UV stress. A Fisher Bioblock type UVA or UVB source with an electric power of 0.3 mW/cm^2 was used. The UV dose was monitored using a radiometer (VLX 3W) and a CX-312 probe for UVB or a CX-365 probe for UVA. Various UV irradiation conditions were evaluated: For a wavelength of λ=312 nm (UVB) • UVB 5 mJ/cm^2, the exposure time was 30 seconds; • UVB 10 mJ/cm^2, the exposure time was 1 minute;
(§3) Total RNA from the monolayer culture was extracted with the SV96 Total RNA Isolation System® following the manufacturer's instructions. The total RNA was eluted in 100 μl of nuclease-free water and quantified using a spectrophotometer at 260 nm (Molecular Devices Spectramax 190). […]
A quantity of 50 ng of total RNA was amplified by Real Time RT-PCR (Quantitek Sybr Green® kit). […]

For another experiment, the system named is elastin. The experiment in a line: Expression of elastin gene by quantitative RT-PCR in normal human fibroblasts. Format: cell-based. To be noted: IL-1b treated fibroblasts, untreated non-irradiated = 1. How it is done: Their level of expression has been related to the number of cells using the housekeeping gene actin. Expression of the LOXL gene was also followed by quantitative RT-PCR under non-irradiated conditions after application for 24 hours of a Geophila cordifolia extract obtained according to process 1a) at 1%.
as §2, §3
A quantity of 50 ng of total RNA was amplified by Real Time RT-PCR (Quantitek Sybr Green® kit). The primers used in the RT-PCR experiments (semi-quantitative or real time) were as follows: […]

A further experiment concerns the target MMP-12 (Homo sapiens, UniProt P39900). Description: Anti-MMP activity, kinetic test with thiopeptide substrate, MMP-12. Format: biochemical. How it is done: (§4) Anti-MMP activity was evaluated on matrix metalloproteases MMP-2 and MMP-12.
(§5) The substrat of MMPs is thiopeptide [Ac-PLG-2mercapto-4-methyl-pentanoyl)-LG-OC2H5] (EnzoLifeSciences, P125-9090). The test is carried out in 96-well plates. Different medium are prepared: A <> containing assay buffer and the substrate—Value obtained with blank was deduced from all other conditions. Positive control, NNGH (EnzoLifeSciences, PI 115-9090), which is metalloproteinase inhibitor, diluted at 1/200 in assay buffer. Untreated control, containing assay buffer, MMP and the substrate: this corresponds to 100% MMP activity.
(§6) Other conditions contain assay buffer, MMP, the substrate and the solution to be tested. After 45 min preincubation at 37° C. (to get interaction between MMP and tested product: tested solution or positive control), substrate is added and plate is immediately placed in Plate reader for kinetic measurement of absorbance at 405 nm (maximum absorbance of coloured product resulting from degradation of substrate by MMP). Full plate is read each minute during 20 minutes. After 20 min, a curve reflecting kinetic evolution of MMPs activity is obtained.
(§7) In the linear phase, the slope of the curve provides with MMP activity. The percentage inhibition was calculated with respect to the untreated control according to the formula:
(§8) Inhibition percentage=100−((slope of tested product/Mean of the untreated control slopes)*100)
(§9) This test was performed on MMP-2 and MMP-12. Tested solution containing Geophila cordifiolia extract was obtained according to example 1c) and tested at different concentration.
as §1

In the next experiment the target is T2, MMP-2 (Homo sapiens, UniProt P08253).
T2 sequence (P08253 110-660): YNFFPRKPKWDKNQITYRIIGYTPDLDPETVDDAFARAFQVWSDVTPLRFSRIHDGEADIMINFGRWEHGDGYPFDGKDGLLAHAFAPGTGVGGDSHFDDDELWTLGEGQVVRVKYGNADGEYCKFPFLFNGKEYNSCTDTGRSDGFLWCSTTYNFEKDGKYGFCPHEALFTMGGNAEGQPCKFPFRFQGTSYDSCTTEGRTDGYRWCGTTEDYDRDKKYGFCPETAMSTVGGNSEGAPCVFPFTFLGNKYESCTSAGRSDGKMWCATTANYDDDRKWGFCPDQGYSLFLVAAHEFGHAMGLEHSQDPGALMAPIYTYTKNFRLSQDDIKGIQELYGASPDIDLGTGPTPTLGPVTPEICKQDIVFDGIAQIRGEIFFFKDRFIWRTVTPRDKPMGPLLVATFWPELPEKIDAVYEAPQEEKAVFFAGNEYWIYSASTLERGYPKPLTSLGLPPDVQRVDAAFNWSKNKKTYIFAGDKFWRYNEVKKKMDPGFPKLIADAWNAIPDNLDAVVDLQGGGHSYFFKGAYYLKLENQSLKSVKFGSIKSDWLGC
Description: Anti-MMP activity, kinetic test with thiopeptide substrate, MMP-2. In kind it is biochemical. How it is done: as §4, §5, §6, §7, §8, §9, §1

Where [4] appears, read: NNGH diluted at 1/200 in assay buffer.
Where [5] appears, read: positive control, Example 8 series.

This note sets out measurements from US20130028849A1, “Agent For Stimulating The Expression of Loxl” (BASF Beauty Care Solutions France S.A.S., priority 2009, published 2013).

Where “and” joins values, the source holds several entries; their conditions need not be identical. Identical values can stand only once.

Sequence of MMP-12 (P39900 106-470): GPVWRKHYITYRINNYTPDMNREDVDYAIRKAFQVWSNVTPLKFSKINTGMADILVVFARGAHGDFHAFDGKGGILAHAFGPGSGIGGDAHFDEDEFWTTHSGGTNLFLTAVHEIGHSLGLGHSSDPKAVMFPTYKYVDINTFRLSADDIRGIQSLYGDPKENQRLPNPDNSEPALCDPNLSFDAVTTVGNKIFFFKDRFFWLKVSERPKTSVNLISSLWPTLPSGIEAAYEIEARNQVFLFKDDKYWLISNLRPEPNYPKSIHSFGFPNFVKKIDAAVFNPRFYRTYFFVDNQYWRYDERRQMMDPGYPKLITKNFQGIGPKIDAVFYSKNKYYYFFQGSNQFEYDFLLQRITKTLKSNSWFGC

With `N[C@@H](CS)C(=O)O` [Cysteine, cysteine], in experiment [1] (2.5 mg/l), the “radical scavenging activity (DPPH test), Mean” value is listed as 68.52 and the “anti-free-radicals effect (% vs negative control)” value was 47.6%. Further, in experiment [1] (5 mg/l), the “radical scavenging activity (DPPH test), Mean” value was found to be 79.49 and the “anti-free-radicals effect (% vs negative control)” value stood at 83.1%.
On to `C[C@H]1[C@H](C)CC[C@]2(C(=O)O)CC[C@]3(C)C(=CC[C@@H]4[C@@]5(C)CC[C@H](O)C(C)(C)[C@@H]5CC[C@]43C)[C@H]12` [Ursolic acid, ursolic acid], for which the “HLE inhibition (%)” value in experiment [2] (0.01% (w/w)) was found to be 85%. The “anti-elastase activity (HLE test), mean” value in experiment [2] (0.01%, Example 8 series) worked out at 90.47.
As to `O=C1O[C@H]([C@@H](O)CO)C(O)=C1O` [vitamin C], in the experiment with type I collagen (day 3), the “anisotropy of collagen type I fibres” value is recorded as “high anisotropy” and the “type I collagen labelling” value is “a fibrillar labelling, being more external to the cell”. For the same compound, in the experiment on type I collagen (day 5), the “anisotropy of collagen type I fibres” value was “anisotropy is increased”; the “type I collagen labelling” value is “labelling is not so intense and fibres are more oriented in one way and thinner”.
Turning to vitamin E, the “anti-free-radicals effect (% vs negative control)” value in experiment [3] was found to be 54.7%.
Take “IL-1b: IL-1b treatment group of fibroblasts in Table 6; not described in the method”: in the experiment with LOXL (single replicates), the “Gene/actin, LOXL” value is 1.108 and 0.9779 and 1.139 and 1.246. Besides, the “Gene/actin, LOXL, Mean” value in the experiment on LOXL was 1.12. In addition, in the experiment with elastin (single replicates), the “Gene/actin, ELN” value is 11.02 and 28.48 and 10.07 and 9.393. The “Gene/actin, ELN, Mean” value with elastin was determined as 14.74.
`COc1ccc(S(=O)(=O)N(CC(=O)NO)CC(C)C)cc1` [NNGH]: on MMP-12 (setting [4]), the “MMP-12 inhibition, Mean (%)” value is 58.63^+++ %. On MMP-12 (positive control, 1/200), the “inhibition of MMP-12 activity (in words)” value was “strongly and significantly inhibits”. Also, the “anti-MMP 12 effect, mean” value on MMP-12 (setting [5]) is listed as 72.5825. In addition, the “MMP-2 inhibition, Mean (%)” value on MMP-2 (setting [4]) is recorded as 73.43^+++ %. On MMP-2 (positive control, 1/200), the “inhibition of MMP-2 activity (in words)” value is “strongly and significantly inhibits”. Also, the “anti-MMP2 effect, mean” value on MMP-2 (setting [5]) was 62.51.
